Measurements reported in ChEMBL document CHEMBL4334495, “Design and Biological Evaluation of m-Xylene Thioether-Stapled Short Helical Peptides Targeting the HIV-1 gp41 Hexameric Coiled-Coil Fusion Complex” (J Med Chem, 2019).
Starred links: 1 amine or outer side, 2 acyl side, 3 side chain; linkers in the order of their positions; H or OH if unused. Positions of bridges follow the written chain, without caps; N, C: chain ends. Non-standard residues stand in square brackets, D forms with d. Residues, ends and D or L forms follow the SMILES beside them. ξ: configuration not given here. mXylylene = c1cc(C[*:1])cc(C[*:2])c1; ξhCys = NC(CCS)C(=O)O

Assays:
[1] = tested on: Human immunodeficiency virus 1; experiment: Antiviral activity against T2635 resistant HIV1 LAI harboring Q66R mutant infected in human MT2 cells or CEMx174 5.25 M7 cells assessed as reduction in p24 Gag protein production at 25:1 ratio of hCS6ERE to compound measured at 4 days post infection by ELISA; type: functional, organism-based, M:B_Lai
[2] = tested on: Human immunodeficiency virus 1; experiment: Antiviral activity against R5 tropic HIV-1 subtype-B Bal infected in human MT2 cells or CEMx174 5.25 M7 cells assessed as reduction in p24 Gag protein production measured at 4 days post-infection by ELISA; type: functional, cell-based, HIV-1 group M; conditions: Human immunodeficiency virus 1, Bal, 96 h
[3] = tested on: Human immunodeficiency virus 1; experiment: (§1) Antiviral activity against T20 resistant HIV1 NL4-3 harboring with V38E/N42S mutant infected in human MT2 cells or CEMx174 5.25 M7 cells assessed as reduction in p24 Gag protein production measured at 4 days post-infection by ELISA; type: functional, organism-based
[4] = tested on: Human immunodeficiency virus 1; experiment: (§2) Antiviral activity against T20 resistant HIV1 NL4-3 harboring with V38E/N42T mutant infected in human MT2 cells or CEMx174 5.25 M7 cells assessed as reduction in p24 Gag protein production at 150:1 hCS6ERE to compound ratio measured at 4 days post-infection by ELISA; type: functional, organism-based
[5] = biological target: Envelope glycoprotein gp160 (Human immunodeficiency virus 1) (UniProt Q6QLK5); experiment: (§3) Ratio of EC50 for inhibition of HIV1 gp41-induced cell-cell fusion between viral envelope expressing human HL2/3 cells to CD4/CCR5 receptor expressing TZM-bl cells in absence of HP23 to EC50 for inhibition of HIV1 gp41-induced cell-cell fusion between viral envelope expressing human HL2/3 cells to CD4/CCR5 receptor expressing TZM-bl cells at 2:1 ratio of hCS6ERE to compound
Chain of Envelope glycoprotein gp160 (Human immunodeficiency virus 1) (Q6QLK5 1-814): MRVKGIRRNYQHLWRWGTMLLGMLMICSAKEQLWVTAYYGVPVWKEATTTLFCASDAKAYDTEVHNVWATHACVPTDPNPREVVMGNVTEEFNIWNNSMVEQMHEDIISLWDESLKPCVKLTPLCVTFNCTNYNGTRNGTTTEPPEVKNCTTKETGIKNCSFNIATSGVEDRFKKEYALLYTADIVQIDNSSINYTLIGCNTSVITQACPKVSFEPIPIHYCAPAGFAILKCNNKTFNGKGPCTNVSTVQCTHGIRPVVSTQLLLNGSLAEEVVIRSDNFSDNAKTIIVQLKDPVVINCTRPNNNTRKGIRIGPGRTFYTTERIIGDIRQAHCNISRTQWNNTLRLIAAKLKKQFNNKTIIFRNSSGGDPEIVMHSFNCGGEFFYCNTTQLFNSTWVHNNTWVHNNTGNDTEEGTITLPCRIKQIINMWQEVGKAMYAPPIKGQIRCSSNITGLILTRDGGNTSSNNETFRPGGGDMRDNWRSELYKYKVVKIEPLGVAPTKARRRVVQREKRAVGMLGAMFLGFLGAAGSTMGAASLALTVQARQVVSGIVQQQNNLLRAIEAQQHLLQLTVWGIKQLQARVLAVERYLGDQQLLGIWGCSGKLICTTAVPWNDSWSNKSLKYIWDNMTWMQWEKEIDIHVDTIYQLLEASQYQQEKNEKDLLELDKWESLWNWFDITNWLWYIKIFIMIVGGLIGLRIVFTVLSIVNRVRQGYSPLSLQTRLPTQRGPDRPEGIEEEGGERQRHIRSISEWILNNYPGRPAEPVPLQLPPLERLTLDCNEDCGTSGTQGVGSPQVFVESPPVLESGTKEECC

[6] = tested on: Human immunodeficiency virus 1; experiment: Ratio of EC50 for antiviral activity against HIV1 NL4-3 infected in human MT2 cells or CEMx174 5.25 M7 cells in absence of hCS6ERE to EC50 for antiviral activity against HIV1 NL4-3 infected in human MT2 cells or CEMx174 5.25 M7 cells at 10:1 hCS6ERE to compound ratio; type: functional
[7] = tested on: Human immunodeficiency virus 1; experiment: Antiviral activity against T2635 resistant HIV1 LAI harboring Q66R mutant infected in human MT2 cells or CEMx174 5.25 M7 cells assessed as reduction in p24 Gag protein production measured at 4 days post-infection by ELISA; type: functional, organism-based, M:B_Lai
[8] = tested on: Human immunodeficiency virus 1; experiment: Antiviral activity against T20 resistant HIV1 NL4-3 harboring with V38E/N42T mutant infected in human MT2 cells or CEMx174 5.25 M7 cells assessed as reduction in p24 Gag protein production measured at 4 days post-infection by ELISA; type: functional, organism-based
[9] = tested on: Human immunodeficiency virus 1; experiment: Antiviral activity against T2635 resistant HIV1 LAI harboring Q66R mutant infected in human MT2 cells or CEMx174 5.25 M7 cells assessed as reduction in p24 Gag protein production at 50:1 ratio of hCS6ERE to compound measured at 4 days post infection by ELISA; type: functional, organism-based, M:B_Lai
[10] = tested on: Human immunodeficiency virus 1; experiment: Antiviral activity against X4 tropic HIV-1 subtype-B 3B infected in human MT2 cells or CEMx174 5.25 M7 cells assessed as reduction in p24 Gag protein production measured at 4 days post-infection by ELISA; type: functional, cell-based, HIV-1 group M; conditions: Human immunodeficiency virus 1, 3B, 96 h
[11] = tested on: Human immunodeficiency virus 1; experiment: Antiviral activity against HIV1 NL4-3 infected in human MT2 cells or CEMx174 5.25 M7 cells assessed as reduction in p24 Gag protein production measured at 4 days post infection by ELISA; type: functional, organism-based; conditions: Human immunodeficiency virus 1, NL4-3, 96 h
[12] = tested on: Human immunodeficiency virus 1; experiment: Antiviral activity against HIV1 NL4-3 infected in human MT2 cells or CEMx174 5.25 M7 cells assessed as reduction in p24 Gag protein production at 10:1 hCS6ERE to compound ratio measured at 4 days post-infection by ELISA; type: functional, organism-based; conditions: Human immunodeficiency virus 1, NL4-3, 96 h
[13] = tested on: Human immunodeficiency virus 1; experiment: Ratio of EC50 for antiviral activity against R5 tropic HIV-1 subtype-B Bal infected in human MT2 cells or CEMx174 5.25 M7 cells in absence of HP23 to EC50 for antiviral activity against R5 tropic HIV-1 subtype-B Bal infected in human MT2 cells or CEMx174 5.25 M7 cells at 24:1 compound to HP23 ratio; type: functional, HIV-1 group M
[14] = tested on: Human immunodeficiency virus 1; experiment: Ratio of EC50 for antiviral activity against R5 tropic HIV-1 subtype-B Bal infected in human MT2 cells or CEMx174 5.25 M7 cells in absence of HP23 to EC50 for antiviral activity against R5 tropic HIV-1 subtype-B Bal infected in human MT2 cells or CEMx174 5.25 M7 cells at 6:1 compound to HP23 ratio; type: functional, HIV-1 group M
[15] = tested on: Human immunodeficiency virus 1; experiment: Ratio of EC50 for antiviral activity against X4 tropic HIV-1 subtype-B 3B infected in human MT2 cells or CEMx174 5.25 M7 cells in absence of HP23 to EC50 for antiviral activity against X4 tropic HIV-1 subtype-B 3B infected in human MT2 cells or CEMx174 5.25 M7 cells at 6:1 compound to HP23 ratio; type: functional, HIV-1 group M
[16] = biological target: Envelope glycoprotein gp160 (Human immunodeficiency virus 1) (UniProt Q6QLK5); experiment: Synergistic inhibition of HIV1 gp41-induced cell-cell fusion between viral envelope expressing human HL2/3 cells to CD4/CCR5 receptor expressing TZM-bl cells assessed as combination index at 2:1 compound to HP23 ratio incubated for 6 hrs by luciferase reporter gene assay
[17] = tested on: Human immunodeficiency virus 1; experiment: as §1, with “Synergistic antiviral” for “Antiviral”, “production by measuring combination index at 14000:1 compound to HP23 ratio” for “production”; type: functional
[18] = biological target: Envelope glycoprotein gp160 (Human immunodeficiency virus 1) (UniProt Q6QLK5); experiment: as §3, with “2:1 compound to HP23” for “2:1”, “ratio” for “ratio of hCS6ERE to compound”
[19] = tested on: Human immunodeficiency virus 1; experiment: Ratio of EC50 for antiviral activity against T20 resistant HIV1 NL4-3 harboring with V38E/N42T mutant infected in human MT2 cells or CEMx174 5.25 M7 cells in absence of HP23 to EC50 for Antiviral activity against T20 resistant HIV1 NL4-3 harboring with V38E/N42T mutant infected in human MT2 cells or CEMx174 5.25 M7 cells at 150:1 compound to HP23 ratio; type: functional
[20] = tested on: Human immunodeficiency virus 1; experiment: Antiviral activity against T20 resistant HIV1 NL4-3 harboring with V38E/N42S mutant infected in human MT2 cells or CEMx174 5.25 M7 cells assessed as reduction in p24 Gag protein production at 3500:1 compound to HP23 ratio measured at 4 days post-infection by ELISA; type: functional, organism-based
[21] = tested on: Human immunodeficiency virus 1; experiment: as §2, with “Synergistic antiviral” for “Antiviral”, “production by measuring combination index” for “production”, “compound” for “hCS6ERE”, “HP23” for “compound”; type: functional
[22] = biological target: Envelope glycoprotein gp160 (Human immunodeficiency virus 1) (UniProt Q6QLK5); experiment: Binding affinity to HIV1 GP41 using GP41 NHR derived N36 peptide assessed as molecular weight at 150 uM incubated for 30 mins by sedimentation Velocity analysis
[23] = biological target: Envelope glycoprotein gp160 (Human immunodeficiency virus 1) (UniProt Q6QLK5); experiment: as §3, with “4:1 compound to HP23” for “2:1”, “ratio” for “ratio of hCS6ERE to compound”

Work on H-EMTWEEWEKKIEEYTKKIEEILK-OH yielded an EC50 [1] of 1.5 nM, an EC50 [2] of 2.6 nM and an EC50 [3] of 1.4 nM. The EC50 [4] was 2.2 nM, the Ratio EC50 [5] was 2 and the “Ratio EC50” value [6] was 3.8. The EC50 [7] was 4.8 nM, the EC50 [8] was 4.1 nM and the EC50 [9] was 0.5 nM. The EC50 [10] was 2.5 nM, the EC50 [11] was 3.4 nM and the EC50 [12] was 0.9 nM.

In the case of `CC[C@H](C)[C@H](NC(C)=O)C(=O)N[C@@H](CCC(=O)O)C(=O)N[C@@H](CCC(=O)O)C(=O)N[C@@H](CC(C)C)C(=O)N[C@H](C(=O)NC1CCSCc2cccc(c2)CSCCC(C(=O)N[C@@H](CCC(N)=O)C(=O)N[C@@H](CCC(N)=O)C(=O)N[C@@H](CCCNC(=N)N)C(=O)N[C@@H](CCCCN)C(=O)N[C@@H](CC(N)=O)C(=O)N[C@@H](CCC(=O)O)C(=O)N[C@@H](CCC(=O)O)C(=O)N[C@@H](C)C(=O)N[C@@H](CC(C)C)C(=O)N[C@@H](CCCNC(=N)N)C(=O)N[C@@H](CCC(=O)O)C(=O)N[C@@H](CC(C)C)C(N)=O)NC(=O)[C@H](CCC(N)=O)NC(=O)[C@H](C)NC(=O)[C@H](C)NC1=O)[C@@H](C)CC` (some centres undefined) (Ac-IEELI[ξhCys]AAQ[ξhCys]QQRKNEEALREL-NH2; linker 6-10 via mXylylene), the EC50 [2] is reported as 15.2 to 15.4 nM, the “Ratio EC50” value [13] is reported as 2.6 and the “Ratio EC50” value [14] is reported as 3.8. For the same compound, the “Ratio EC50” value [15] was 3.6, the EC50 [3] was 6900 nM and the CI [16] was 0.8. It also gave an EC50 [7] of 86.4 nM, an EC50 [8] of 1010 nM and a CI [17] of 0.6. The Ratio EC50 [18] was 2, the “Ratio EC50” value [19] was 3.1 and the EC50 [20] was 2040 nM. The EC50 [10] was 11 to 27.1 nM, the CI [21] was 0.9 and the Activity [22] was 19.2 kDa. The Ratio EC50 [23] was 2.9 and the EC50 [11] was 22.1 nM.
